Active and inactive are the calls of the source. No cut-off for these calls is given here.
Legend:
[1] = Cytotoxicity against human THP-1 cells assessed as cellular proliferation inhibition measured after 48 hrs by MTT assay; type: toxicity, cell-based
THP-M = assay: Inhibition of NLRP3 and […] protein-protein interaction in human THP-M cells assessed as suppression activation of NLRP3 inflammasome by affecting ASC oligomerization at 10 to 50 uM pretreated for 24 hrs followed by stimulated with LPS for 3 hrs and ATP for 1 hr by co-IP analysis; type: cell-based; conditions: dose 10-50 µM, time 28.0 hrs
[2] = Apparent volume of distribution during terminal phase in Sprague-Dawley rat at 20 mg/kg, ip measured upto 720 mins by LC-MS/MS analysis; type: ADME, organism-based; conditions: in vivo, read-out: Vz/F
[3] = AUC (0 to t) in Sprague-Dawley rat at 20 mg/kg, IG measured upto 1440 mins by LC-MS/MS analysis; type: ADME, organism-based; conditions: in vivo, po
[4] = Half life in Sprague-Dawley rat at 20 mg/kg, ip measured upto 720 mins by LC-MS/MS analysis; type: ADME, organism-based; conditions: in vivo
[5] = AUC (0 to t) in Sprague-Dawley rat at 20 mg/kg, ip measured upto 720 mins by LC-MS/MS analysis; type: ADME, organism-based; conditions: in vivo
[6] = AUC (0 to infinity) in Sprague-Dawley rat at 20 mg/kg, IG measured upto 1440 mins by LC-MS/MS analysis; type: ADME, organism-based; conditions: in vivo, po
[7] = Cmax in Sprague-Dawley rat at 20 mg/kg, IG measured upto 1440 mins by LC-MS/MS analysis; type: ADME, organism-based; conditions: in vivo, po
[8] = MRT (0 to infinity) in Sprague-Dawley rat at 20 mg/kg, ip measured upto 720 mins by LC-MS/MS analysis; type: ADME, organism-based; conditions: in vivo
[9] = Half life in Sprague-Dawley rat at 20 mg/kg, IG measured upto 1440 mins by LC-MS/MS analysis; type: ADME, organism-based; conditions: in vivo, po
[10] = AUC (0 to infinity) in Sprague-Dawley rat at 20 mg/kg, ip measured upto 720 mins by LC-MS/MS analysis; type: ADME, organism-based; conditions: in vivo, 12 h
[11] = Apparent clearance during terminal phase in Sprague-Dawley rat at 20 mg/kg, IG measured upto 1440 mins by LC-MS/MS analysis; type: ADME, organism-based; conditions: in vivo, po
[12] = Tmax in Sprague-Dawley rat at 20 mg/kg, IG measured upto 1440 mins by LC-MS/MS analysis; type: ADME, organism-based; conditions: in vivo, po
[13] = MRT (0 to infinity) in Sprague-Dawley rat at 20 mg/kg, IG measured upto 1440 mins by LC-MS/MS analysis; type: ADME, organism-based; conditions: in vivo, po
[14] = Bioavailability in Sprague-Dawley rat at 20 mg/kg, ip measured upto 720 mins by LC-MS/MS analysis; type: ADME, organism-based; conditions: in vivo
[15] = MRT (0 to t) in Sprague-Dawley rat at 20 mg/kg, ip measured upto 720 mins by LC-MS/MS analysis; type: ADME, organism-based; conditions: in vivo
[16] = Apparent volume of distribution during terminal phase in Sprague-Dawley rat at 20 mg/kg, IG measured upto 1440 mins by LC-MS/MS analysis; type: ADME, organism-based; conditions: in vivo, po, read-out: Vz/F
[17] = MRT (0 to t) in Sprague-Dawley rat at 20 mg/kg, IG measured upto 1440 mins by LC-MS/MS analysis; type: ADME, organism-based; conditions: in vivo, po
Rattus norvegicus = assay: Anti-inflammatory activity against complete Freund's adjuvant (CFA)-induced arthritis rat model assessed as synovial hyperplasia in rat synovium from the left rear ankle at 10 mg/kg, ip treated after 17 days of CFA challenge measured after 18 days (day 17 to 34) by H and E staining based assay relative to model group; type: functional, organism-based; conditions: time 18.0 day

SMILES | IC50 at 48 h [1] [µM] | other results
O=C(c1ccc(Cn2c(SCC3CCCCC3)nc3ccncc32)cc1)N1CCOCC1 | > 100 | –
COC(=O)c1ccc(Cn2c(SCC3CCCCC3)nc3ccncc32)cc1 | > 100 | –
COCCCNC(=O)c1ccc(Cn2c(SCc3ccc(C(F)(F)F)cc3)nc3ccncc32)cc1 | 51.1 | –
COc1ccc(-c2[nH]c3ccccc3c2SCCNC(=O)c2ccc(S(=O)(=O)N3CCOCC3)cc2)cc1 | > 100 | –
COCCCNC(=O)c1ccc(Cn2c(SCc3ccc(C#N)cc3)nc3ccncc32)cc1 | > 100 | –
COCCCNC(=O)c1ccc(Cn2c(SCc3ccc([N+](=O)[O-])cc3)nc3ccncc32)cc1 | > 100 | –
COCCCNC(=O)c1ccc(Cn2c(SCc3ccc(F)cc3)nc3ccncc32)cc1 | > 100 | –
CC(C)c1ccc(Cn2c(SCC3CCCCC3)nc3ccncc32)cc1 | 77.3 | –
COCCNC(=O)c1ccc(Cn2c(SCC3CCCCC3)nc3ccncc32)cc1 | 96.3 | –
COc1ccc(N2CCN(CCCNC(=O)COCc3cc(-c4ccc5c(c4)OCO5)on3)CC2)cc1 | 85.2 | –
COCCCNC(=O)c1ccc(Cn2c(SCc3ccccc3)nc3ccncc32)cc1 | > 100 | –
CC(C)OCCCn1c(=O)c2ccccc2n2c(CCC(=O)NCc3ccccc3)nnc12 | 65.5 | –
COCCCNC(=O)c1ccc(Cn2c(SCC3CC3)nc3ccncc32)cc1 | > 100 | –
COCCCNC(=O)c1ccc(Cn2c(SCc3ccc(Cl)cc3)nc3ccncc32)cc1 | 23 | –
COCCCNC(=O)c1ccc(Cn2c(SCC=C(C)C)nc3ccncc32)cc1 | > 100 | –
COCCCNC(=O)c1ccc(Cn2c(SCc3cccc(F)c3)nc3ccncc32)cc1 | > 100 | –
COCCCNC(=O)c1ccc(Cn2c(SCc3ccc(F)nc3)nc3ccncc32)cc1 | > 100 | –
CC(C)(C)c1ccc(Cn2c(SCC3CCCCC3)nc3ccncc32)cc1 | 93.5 | –
COCCCNC(=O)c1ccc(Cn2c(SCc3ccccn3)nc3ccncc32)cc1 | > 100 | –
COCCCNC(=O)c1ccc(Cn2c(SCc3ccc(OC)cc3)nc3ccncc32)cc1 | > 100 | –
CCNC(=O)c1ccc(Cn2c(SCC3CCCCC3)nc3ccncc32)cc1 | > 100 | –
CCOC(=O)c1ccc(Cn2c(SCC3CCCCC3)nc3ccncc32)cc1 | > 100 | inhibition (THP-M): Active
O=C(c1ccccc1)c1ccc(Cn2c(SCC3CCCCC3)nc3ccncc32)cc1 | 72.4 | –
COCCCNC(=O)c1ccc(Cn2c(SCC3CCCC3)nc3ccncc32)cc1 | > 100 | –
CCCNC(=O)c1ccc(Cn2c(SCC3CCCCC3)nc3ccncc32)cc1 | > 100 | –
COCCCNC(=O)c1ccc(Cn2c(SCc3cc(F)cc(F)c3)nc3ccncc32)cc1 | > 100 | –
CCCC(=O)Nc1ccc(Cn2c(SCC3CCCCC3)nc3ccncc32)cc1 | > 100 | –

SMILES | IC50 at 48 h [1] [µM] | other results
CNC(=O)CCn1c(SCC2CCCCC2)nc2ccncc21 | > 100 | –
COCCCNC(=O)c1ccc(Cn2c(SCc3cccnc3)nc3ccncc32)cc1 | > 100 | –
COCCCNC(=O)c1ccc(Cn2c(SCc3ccccc3F)nc3ccncc32)cc1 | 53.3 | –
COc1ccc(C2=NN(C(=O)CSc3nnc(CNC(=O)COc4ccccc4)n3CCc3ccccc3)C(c3ccc(OC)cc3)C2)cc1 (configuration not stated) | > 100 | –
COCCCNC(=O)c1ccc(Cn2c(SCc3ccncc3)nc3ccncc32)cc1 | > 100 | –
O=C(c1ccc(Cn2c(SCC3CCCCC3)nc3ccncc32)cc1)N1CCNCC1 | > 100 | Vd/F [2]: 4.96 L/kg; AUC(0-t) at 24 h [3]: 733 ng·h/mL; half-life [4]: 1.11 h; AUC(0-t) at 12 h [5]: 1320 ng·h/mL; AUC(0-inf) [6]: 906 ng·h/mL; Cmax [7]: 280 ng/mL; MRT inf [8]: 1.32 h; half-life [9]: 3.93 h; AUC [10]: 103322 ng·min/mL; CL/F [11]: 500 mL/min/kg; Tmax [12]: 0.245 h; MRT inf [13]: 4.86 h; bioavailability [14]: 13.2%; MRT last at 12 h [15]: 0.615 h; Vd/F [16]: 193 L/kg; MRT last at 24 h [17]: 2.89 h
NC(=O)c1ccc(Cn2c(SCC3CCCCC3)nc3ccncc32)cc1 | > 100 | –
CCCNC(=O)CCCCn1c(=O)c2ccccc2n(CC(=O)NCc2ccc(F)cc2)c1=O | > 100 | –
COCCCNC(=O)c1ccc(Cn2c(SCc3cccc(C)c3)nc3ccncc32)cc1 | > 100 | –
COc1ccc(N2CCN(CCCNC(=O)c3nnc(Cc4ccc(F)cc4)o3)CC2)cc1 | > 100 | –
CCOCCCNC(=O)c1ccc(CSc2nc3ccncc3n2Cc2cccc(OC)c2)cc1 | > 100 | –
CCCc1ccc(Cn2c(SCC3CCCCC3)nc3ccncc32)cc1 | 87.6 | –
CC(C)(O)c1coc(S(=O)(=O)NC(=O)Nc2c3c(cc4c2CCC4)CCC3)c1 | > 100 | Activity (Rattus norvegicus): Active
COCCCNC(=O)c1ccc(Cn2c(SCc3ccc(C)cc3)nc3ccncc32)cc1 | > 100 | –
COCCCNC(=O)c1ccc(Cn2c(SCc3cc(C)cc(C)c3)nc3ccncc32)cc1 | > 100 | –
CNC(=O)c1ccc(Cn2c(SCC3CCCCC3)nc3ccncc32)cc1 | > 100 | –
CCCCNC(=O)c1ccc(Cn2c(SCC3CCCCC3)nc3ccncc32)cc1 | > 100 | –
CCOc1ccc(CCNC(=O)Cn2nc(-c3ccc(C)c(S(=O)(=O)N4CCCCC4)c3)c3ccccc3c2=O)cc1OCC | > 100 | –
CCCCCNC(=O)c1ccc(Cn2c(SCC3CCCCC3)nc3ccncc32)cc1 | 87.5 | –
COCCCNC(=O)c1ccc(Cn2c(SCc3ccc(Br)cc3)nc3ccncc32)cc1 | 90.3 | –
CCC(=O)Nc1ccc(Cn2c(SCC3CCCCC3)nc3ccncc32)cc1 | > 100 | –
COCCCNC(=O)c1ccc(Cn2c(SCC3CCC3)nc3ccncc32)cc1 | > 100 | –
COC(=O)CCCCn1c(SCC2CCCCC2)nc2ccncc21 | > 100 | –
CCOCCCNC(=O)c1ccc(CSc2nc3ccncc3n2Cc2cccc(F)c2)cc1 | > 100 | –
O=C(c1ccc(Cn2c(SCC3CCCCC3)nc3ccncc32)cc1)N1CCCC1 | > 100 | –
CC(=O)Nc1ccc(Cn2c(SCC3CCCCC3)nc3ccncc32)cc1 | > 100 | –
COCCCNC(=O)c1ccc(Cn2c(SCc3cccc([N+](=O)[O-])c3)nc3ccncc32)cc1 | > 100 | –

— ChEMBL document CHEMBL5500404, “Discovery and Development of NLRP3 Inhibitors Targeting the LRR Domain to Disrupt NLRP3-NEK7 Interaction for the Treatment of Rheumatoid Arthritis” (J Med Chem, 2024)
